Patent publication US20090209601A1, “USE OF RXR AGONISTS FOR THE TREATMENT OF OSTEOARTHRITIS” (Wyeth, priority 2008, published 2009)

Legend:
RXRγ = RXRγ expression by qRT-PCR in cytokine-treated primary articular chondrocytes; assay type: cell-based; settings: primary human articular chondrocytes (n=4 donors), monolayer culture, 18 hours; IL-1β 1 ng/ml, TNFα 10 ng/ml; vs vehicle/untreated
Protocol: (§1) For isolation of RNA from chondrocytes in monolayer culture, pellets were digested with collagenase (2.5 mg/ml, Sigma, St Louis, Mo.) and RNA was subsequently prepared using TRIzol reagent (Invitrogen) according to the manufacturer's protocol. Primary chondrocytes in monolayer culture were lysed by direct addition of TRIzol reagent followed by standard TRIzol RNA purification methodologies.
(§2) Chondrocytes were isolated from fresh human articular cartilage using a standard method previously described (Heinlein et al., Endocr. Rev. 25:276-308 (2004)). Cells were cultured in 10% FBS containing DMEM/F12 growth media for 2-3 days in 12 well culture plates at a density of 1-2×10^6 cells/well. Chondrocyte cultures were stimulated with cytokines (TNFα: 10 ng/ml; IL-1β: 1 ng/ml) for 18 hours.
(§3) cDNA was prepared from purified RNA using the High-Capacity cDNA Archive Kit (Applied Biosystems, catalog #4322171) according to the manufacturer's instructions. Quantitative real-time PCR was performed using either human TaqMan® Gene Expression assays or TaqMan® Low Density Arrays (TLDA) from Applied Biosystems. Thermal cycling was performed using either an ABI Prism 7900 Sequence Detection System (for TLDA) or an ABI Prism 7700 Sequence Detection System (for individual TaqMan® Gene Expression Assays). […]

RXRα = RXRα expression by qRT-PCR in cytokine-treated primary articular chondrocytes; assay type: cell-based; settings: primary human articular chondrocytes (n=4 donors), monolayer culture, 18 hours; IL-1β 1 ng/ml, TNFα 10 ng/ml; vs vehicle/untreated
Protocol: as §1, §2, §3

For “IL-1: inflammatory cytokine purchased from R&D Systems, used to stimulate chondrocyte cultures”, the RXRγ expression (RXRγ) was “not” and the RXRα expression (RXRα) was “significantly reduced”.
